Laboratory results as given in publication PMC11975549, “Development of Potent Type V MAPK Inhibitors: Design, Synthesis, and Biological Evaluation of Benzothiazole Derivatives Targeting p38α MAPK in Breast Cancer Cells” (Archiv Der Pharmazie, 2025).
Values joined by “and” are separate entries in the source; they are usually repeats but may differ in a detail not shown here. Equal values may be shown once. Read-outs that look alike come from different tables or passages of the source. One block for each compound: values may come before it.

Legend:
p38α MAPK [1] = tested on: p38α MAPK; set-up: method as in PMID 34894967; conditions: MCF‐7 cells; cited from earlier work
p38α MAPK [2] = conditions: cited from earlier work
normal prostate cells = tested on: normal prostate cells; set-up: method as in PMID 31838901; conditions: cited from earlier work
prostate cancer cells = tested on: prostate cancer cells; set-up: method as in PMID 31838901; conditions: cited from earlier work
L929 cells = test: MTT cytotoxicity assay, L929 healthy cells; type: cell-based; conditions: healthy mouse fibroblast
Description: (§1) Cell culture experiments were performed to assess the antiproliferative efficacy of the synthesized benzothiazole compounds on the MCF7 and MDA‐MB‐231 cell lines. The anticancer activity of the compounds were compared with the L929 healthy cell line as a control. Doxorubicin and cisplatin, the anticancer agents, were employed as positive controls.
(§2) Human epithelial breast adenocarcinoma (MDA‐MB‐231) (ATCC® HTB‐26™), human epithelial breast adenocarcinoma (MCF7) (ATCC® HTB‐22™), and healthy mouse fibroblast (L929) (ATCC® CRL‐10317™) cells were obtained commercially from ATCC.
(§3) MDA‐MB‐231, MCF7, and L929 cells were seeded in 25 cm² flasks. DMEM medium containing 10% FBS, 1% Penicillin‐Streptomycin, L‐Glutamine, and NaHCO₃ was used as the cell culture medium. The cells were incubated and propagated at 37°C in an environment containing 5% CO₂ and 95% humidity. When the cells reached 80%–90% confluency, they were passaged to different media. During passaging, DMEM was first withdrawn, and the cells were washed with PBS to remove FBS from the medium. Then, Trypsin‐EDTA solution was added to the flask to detach the cells, and the flask was kept in a CO₂ incubator for approximately 1 min. To stop the activity of Trypsin‐EDTA medium containing FBS was added to the flask. The cells were collected into a Falcon tube and centrifuged at 800 rpm for 5 min at room temperature. The supernatant was discarded, and the cell pellet was resuspended in the medium and seeded on cell culture plates according to the experimental protocol.
(§4) A total of 2 mg of each compound was dissolved in an appropriate amount of dimethyl sulfoxide (DMSO) to prepare 10 mM stock solutions. These stock solutions were then diluted to create 100 μM intermediate stocks and stored at −80°C. Commercially purchased cisplatin and doxorubicin HCl (Sigma, St. Louis, MO) were dissolved in DMSO following the manufacturer's protocol to create 20 mM stock solutions. These standard drug molecules were diluted from the stock solution, divided into 100 μM aliquots, and stored at –80°C until use.
(§5) MTT analysis was performed to evaluate the in vitro cytotoxicity of the synthesized compounds against different cancer cell lines. Cells used in the cytotoxicity experiments were cultured in DMEM medium supplemented with 10% FBS. Cells suspended in the medium (2 × 10⁴ cells/mL) were seeded into 96‐well culture plates and incubated at 37°C in a 5% CO₂ incubator. After 12 h, compounds were added at different doses (2 µL) to cells (2 × 10⁴) in the 96‐well plates and incubated at 37°C for 24 h.
(§6) The incubated cells were then treated with 20 µL of MTT solution and incubated at 37°C for 4 h. The supernatant was carefully removed from each well, and 100 µL of DMSO was added to each well to dissolve the formazan crystals formed by the cellular reduction of MTT. The absorbance was measured at 570 nm using an ELISA reader. […] At the end of the experiment, the device calculated the IC50 value for each well, and the average values were recorded. Each experiment was performed in at least three replicates.

MCF7 cells = test: MTT antiproliferative assay, MCF7; type: cell-based, human; conditions: for IC50: MTT, 24 h incubation; for Selectivity MCF7: Selectivity index = L929 IC50 / MCF7 IC50 (24 h)
Description: as §1, §2, §3, §4, §5, §6

p38 MAPKα = test: p38 MAPK alpha ELISA, total level in treated MCF7 cells normalised to total protein (BCA); type: cell-based, human; conditions: MCF7 cells exposed to compound
Excerpt: To account for variations in protein quantities among the cells. The total protein concentrations in cells subjected to the drugs were quantified. The p38 MAPKα levels were adjusted by dividing by the protein levels, yielding results represented as ng/μg protein (Table 3).
A bicinchoninic acid (BCA) protein assay kit (catalog no. 23227) was obtained from Thermo‐Fisher Scientific (IL, USA) and used to detect total protein by the BCA assay. In this assay, the reaction between BCA, Cu²⁺ ions, and Cu⁺ ions form a purple complex in alkaline conditions. The absorbance of this complex was measured at 562 nm, and the results were expressed in mg/mL.
The p38 MAPK alpha ELISA Kit (ab221012; Abcam, Cambridge, MA) was used to measure the levels of […] in cell lysates according to the manufacturer's instructions. The SimpleStep Enzyme‐Linked Immunosorbent Assay (ELISA) kit was designed to assess total p38 MAPKα protein semi‐quantitatively. The SimpleStep ELISA uses a reporter‐conjugated detection antibody, and an affinity‐tag labeled capture antibody to immunocapture the sample analyte in solution. An anti‐tag antibody coating the well immobilizes the entire complex (capture antibody, analyte, and detection antibody).
Samples or controls were added to the wells, followed by the Antibody Cocktail to complete the test. After incubation, the wells were washed to remove unbound material. […] The levels of MAPK were normalized to total protein content.

MDA‐MB‐231 cells = test: MTT antiproliferative assay, MDA-MB-231; type: cell-based, human; conditions: for IC50: MTT, 24 h incubation; for Selectivity MDA‐MB‐231: Selectivity index = L929 IC50 / MDA‐MB‐231 IC50 (24 h)
Description: as §1, §2, §3, §4, §5, §6

MCF7 cell line = tested on: MCF7 cell line; set-up: method as in PMID 30792101; conditions: MTT assay; cited from earlier work
MDA‐MB‐231 cell line = tested on: MDA‐MB‐231 cell line; set-up: method as in PMID 30792101; conditions: MTT assay; cited from earlier work
HeLa cells = tested on: HeLa cells; set-up: method as in PMID 34328852; conditions: cited from earlier work
p38α MAPK [3] = tested on: p38α MAPK; set-up: method as in PMID 34328852; conditions: HeLa cells, compared with the control anisomycin (30 μM); cited from earlier work

SMILES: Cc1ccc(C(=O)/C=C/c2ccc(Oc3ccc(Br)cc3)cc2)cc1 [Compound 10j]
total p38α MAPK and phosphorylated enzyme levels (p38α MAPK [1]): reduced

SMILES: COc1c(-c2cc(-c3ccc(C)o3)c(C#N)c(N)n2)c(O)c(Br)c2occc12 [Compound 6f]
IC50 (p38α MAPK [2]; read-out: IC50 p38α MAP kinase): 0.04 µM

SMILES: O=C(CSc1nnc(COc2ccccc2)n1-c1ccc(F)cc1)Nc1nc2ccccc2s1 [Compound 13m]
IC50 (p38α MAPK [2]; read-out: IC50 p38α MAPK): 0.031 µM

SMILES: COc1c(-c2cc(-c3ccc(F)cc3)c(C#N)c(=N)[nH]2)c(O)c(Br)c2occc12 [Compound 8h]
IC50 (p38α MAPK [2]; read-out: IC50 p38α MAPK): 0.27 µM

SMILES: CCNC(=O)c1ccc(C)c(NC(=O)c2ccc3c(-c4ccc(Cl)cc4)n[nH]c3c2)c1 [Compound 11k, 3‐(4‐chlorophenyl)‐N‐(5‐(ethylcarbamoyl)‐2‐methylphenyl)‐1H‐indazole‐6‐carboxamide]
IC50 (p38α MAPK [2]; read-out: IC50 p38α MAPK): 3.37 ± 0.24 µM

SMILES: COc1cccc(CNC(=O)c2ccc(N3CCOCC3)c(NC(=O)Nc3ccc(F)cc3F)c2)c1 [Compound 5e]
damage to normal prostate cells (normal prostate cells): without causing considerable damage | viability, proliferation and migration of prostate cancer cells (prostate cancer cells): inhibited the viability and reduced the proliferation and migration

SMILES: Clc1cccc(Cl)c1Nc1ccccc1Cc1nncn1Nc1nc2ccccc2s1 [Compound 12l]
IC50 (p38α MAPK [2]; read-out: IC50 p38α MAPK): 0.036 µM

SMILES: COc1cccc(-c2nn(-c3ccccc3)cc2-c2ccncc2)c1 [Compound 4d]
IC50 (p38α MAPK [2]; relative selectivity in comparison to 15 other kinases, read-out: IC50 p38α): 0.515 µM

IC50 (MCF7 cells): 7.09 ± 0.02 µM | IC50 (MDA‐MB‐231 cells): 6.42 ± 0.07 µM
SMILES: COc1cccc(CC(=O)Nc2nc3ccccc3s2)c1 [Compound 21, N‐(Benzo[d]thiazol‐2‐yl)‐2‐(3‐methoxyphenyl) acetamide]
IC50 (L929 cells; 24 h incubation): 66.3 ± 1.82 µM | Selectivity MCF7 (MCF7 cells): 9.354 | Total p38α MAPK levels (p38 MAPKα): 1.333 ± 0.007 ng/μg protein | Selectivity MDA‐MB‐231 (MDA‐MB‐231 cells): 10.330

IC50 (MCF7 cells): 8.24 ± 0.19 µM | IC50 (MDA‐MB‐231 cells): 7.04 ± 0.18 µM
SMILES: O=C(Cc1ccc(Cl)cc1)Nc1nc2ccccc2s1 [Compound 23, N‐(Benzo[d]thiazol‐2‐yl)‐2‐(4‐chlorophenyl) acetamide]
IC50 (L929 cells; 24 h incubation): 54 ± 1.08 µM | Selectivity MCF7 (MCF7 cells): 6.550 | Total p38α MAPK levels (p38 MAPKα): 2.331 ± 1.241 ng/μg protein | Selectivity MDA‐MB‐231 (MDA‐MB‐231 cells): 7.666

IC50 (MCF7 cells; Homo sapiens, MCF7): 10.6 ± 0.16 µM | IC50 (MDA‐MB‐231 cells; Homo sapiens, MDA-MB-231): 16 ± 0.68 µM
SMILES: O=C(NCc1nc2ccccc2s1)c1cccs1 [Compound 14, N‐(Benzo[d]thiazol‐2‐ylmethyl) thiophene‐2‐carboxamide]
IC50 (L929 cells; L929, 24 h incubation): 22.2 ± 0.68 µM | Selectivity MCF7 (MCF7 cells): 2.096 | Total p38α MAPK levels (p38 MAPKα): 0.199 ± 0.011 ng/μg protein | Selectivity MDA‐MB‐231 (MDA‐MB‐231 cells): 1.391

IC50 (MCF7 cells): 11.1 ± 0.37 µM | IC50 (MDA‐MB‐231 cells): 18.8 ± 0.23 µM
SMILES: O=C(Cc1cccs1)NCc1nc2ccccc2s1 [Compound 28, N‐(Benzo[d]thiazol‐2‐ylmethyl)‐2‐(thiophen‐2‐yl) acetamide]
IC50 (L929 cells; 24 h incubation): 31 ± 0.33 µM | Selectivity MCF7 (MCF7 cells): 2.794 | Total p38α MAPK levels (p38 MAPKα): 2.542 ± 0.228 ng/μg protein | Selectivity MDA‐MB‐231 (MDA‐MB‐231 cells): 1.655

SMILES: CS(=O)(=O)CCNCc1ccc(-c2ccc3ncnc(Nc4ccc(OCc5cccc(F)c5)c(Cl)c4)c3c2)o1 [lapatinib]
IC50 (MCF7 cell line): 4.69 µM | IC50 (MDA‐MB‐231 cell line): 4.69 µM

IC50 (MCF7 cells; Homo sapiens, MCF7): 8.83 ± 0.43 µM | IC50 (MDA‐MB‐231 cells; Homo sapiens, MDA-MB-231): 11.78 ± 0.11 µM
SMILES: O=C(NCc1nc2ccccc2s1)c1ccco1 [Compound 15, N‐(Benzo[d]thiazol‐2‐ylmethyl) furan‐2‐carboxamide]
IC50 (L929 cells; L929, 24 h incubation): 26.8 ± 0.84 µM | Selectivity MCF7 (MCF7 cells): 3.031 | Total p38α MAPK levels (p38 MAPKα): 0.155 ng/μg protein and 0.155 ± 0.045 ng/μg protein | Selectivity MDA‐MB‐231 (MDA‐MB‐231 cells): 2.272

SMILES: COc1c(C(=O)/C=C/c2ccc(C)o2)c(O)c(Br)c2occc12 [Compound 9i]
IC50 (MCF7 cell line): 1.35 µM | IC50 (p38α MAPK [2]; read-out: IC50 p38α MAP kinase): 0.04 µM | IC50 (MDA‐MB‐231 cell line): 2.09 µM

IC50 (MCF7 cells; Homo sapiens, MCF7): 4.69 ± 0.05 µM | IC50 (MDA‐MB‐231 cells; Homo sapiens, MDA-MB-231): 5.2 ± 0.19 µM
SMILES: Cc1ccc(C(=O)Nc2nc3ccccc3s2)cc1 [Compound 8, N‐(Benzo[d]thiazol‐2‐yl)‐4‐methylbenzamide]
IC50 (L929 cells; L929, 24 h incubation): 6.44 ± 0.05 µM | Selectivity MCF7 (MCF7 cells): 1.373 | Total p38α MAPK levels (p38 MAPKα): 9.541 ± 0.099 ng/μg protein | Selectivity MDA‐MB‐231 (MDA‐MB‐231 cells): 1.238

SMILES: O=c1oc2ccccc2c(O)c1C1=CC(c2ccc(F)cc2)NC(=S)N1 (centres unmarked) [Compound 7g]
reduction in cell viability (HeLa cells; 10 μM): 80% | reduction in cell viability (HeLa cells; 30 μM): 72% | suppression of p38α MAPK activation (p38α MAPK [3]): 0.64

IC50 (MCF7 cells; Homo sapiens, MCF7): 11.2 ± 0.75 µM | IC50 (MDA‐MB‐231 cells; Homo sapiens, MDA-MB-231): 20.2 ± 0.73 µM
SMILES: Cc1ccc(C(=O)NCc2nc3ccccc3s2)cc1 [Compound 18, N‐(Benzo[d]thiazol‐2‐ylmethyl)‐4‐methylbenzamide]
IC50 (L929 cells; L929, 24 h incubation): 29.1 ± 0.52 µM | Selectivity MCF7 (MCF7 cells): 2.604 | Total p38α MAPK levels (p38 MAPKα): 1.34 ± 0.154 ng/μg protein | Selectivity MDA‐MB‐231 (MDA‐MB‐231 cells): 1.442

IC50 (MCF7 cells; Homo sapiens, MCF7): 6.19 ± 1.05 µM | IC50 (MDA‐MB‐231 cells; Homo sapiens, MDA-MB-231): 10.74 ± 0.03 µM
SMILES: O=C(Cc1ccccc1)Nc1nc2ccccc2s1 [Compound 19, N‐(Benzo[d]thiazol‐2‐yl)‐2‐phenylacetamide]
IC50 (L929 cells; L929, 24 h incubation): 93.9 ± 1.9 µM | Selectivity MCF7 (MCF7 cells): 15.171 | Total p38α MAPK levels (p38 MAPKα): 0.112 ng/μg protein and 0.112 ± 0.001 ng/μg protein | Selectivity MDA‐MB‐231 (MDA‐MB‐231 cells): 8.744
